Assay results published in patent US20240327334A1, “Covalent Inhibitors As Antiviral Agents” (Enanta Pharmaceuticals, Inc., priority 2022, published 2024).

How the values were obtained:
[1] = biological target: SARS-CoV-2 Papain-like (PLpro) protease (Severe acute respiratory syndrome coronavirus 2, UniProt P0DTD1); assay: SARS-CoV-2 Papain-like (PLpro) protease biochemical enzyme inhibition assay (ubiquitin-fluorophore substrate, Ub-R110); conditions: Ub-R110 substrate; run in duplicate; read-out: PLpro IC50
[2] = tested on: SARS-CoV-2 replicon; assay: microbe, parasite or virus in culture; assay type: cell-based; conditions: Severe acute respiratory syndrome coronavirus 2, Huh-7

Structure (SMILES) | IC50 [1] [nM] | EC50 [2] [nM]
O=C(NC/C=C/S(=O)(=O)c1ccccc1)C(=O)NCc1ccccc1C(=O)NC1(c2ccc3ccccc3c2)CC1 [Example 173] | < 100 | < 1000
O=C(NCC#Cc1ccccn1)C(=O)NCc1ccccc1C(=O)NC1(c2ccc3ccccc3c2)CC1 [Example 174] | < 100 | < 1000
O=C(NCC#Cc1ccc(C(F)(F)F)cc1F)C(=O)NCc1ccccc1C(=O)NC1(c2ccc3ccccc3c2)CC1 [Example 175] | 100 to 1000 | 1000 to 10000
O=C(NCC#Cc1ncc(F)cn1)C(=O)NCc1ccccc1C(=O)NC1(c2ccc3ccccc3c2)CC1 [Example 176] | < 100 | < 1000
O=C(NCC#Cc1nc2ccccc2s1)C(=O)NCc1ccccc1C(=O)NC1(c2ccc3ccccc3c2)CC1 [Example 177] | 100 to 1000 | 1000 to 10000
Cc1cc(C)nc(C#CCNC(=O)C(=O)NCc2ccccc2C(=O)NC2(c3ccc4ccccc4c3)CC2)n1 [Example 178] | < 100 | < 1000
O=C(NCC#Cc1ncc(F)s1)C(=O)NCc1ccccc1C(=O)NC1(c2ccc3ccccc3c2)CC1 [Example 179] | < 100 | < 1000
O=C(NCC#Cc1cnc(C2CC2)nc1)C(=O)NCc1ccccc1C(=O)NC1(c2ccc3ccccc3c2)CC1 [Example 180] | 1000 to 10000 | 1000 to 10000
O=C(NCC#Cc1cnc(C(F)(F)F)nc1)C(=O)NCc1ccccc1C(=O)NC1(c2ccc3ccccc3c2)CC1 [Example 181] | < 100 | < 1000
C[C@@H](C#Cc1nccs1)NC(=O)C(=O)NCc1ccccc1C(=O)NC1(c2ccc3ccccc3c2)CC1 [Example 183] | < 100 | < 1000
C[C@@H](C#Cc1nccs1)NC(=O)C(=O)NCc1ccccc1C(=O)NC1(c2ccc3nn(C)cc3c2)CC1 [Example 184] | < 100 | < 1000
C[C@@H](C#Cc1nccs1)NC(=O)C(=O)NCc1ccccc1C(=O)NC1(c2cc(F)cc(-c3cnn(C4CC4)c3)c2)CC1 [Example 185] | < 100 | < 1000
COc1cccc(C#CCNC(=O)C(=O)NCc2ccccc2C(=O)NC2(c3ccc4ccccc4c3)CC2)n1 [Example 186] | < 100 | < 1000
O=C(NCC#Cc1cc(F)ccn1)C(=O)NCc1ccccc1C(=O)NC1(c2ccc3ccccc3c2)CC1 [Example 187] | < 100 | < 1000
O=C(NCC#Cc1ncc(F)cc1F)C(=O)NCc1ccccc1C(=O)NC1(c2ccc3ccccc3c2)CC1 [Example 188] | < 100 | < 1000
O=C(NCC#Cc1ccc(C(F)(F)F)cn1)C(=O)NCc1ccccc1C(=O)NC1(c2ccc3ccccc3c2)CC1 [Example 189] | < 100 | < 1000
N#Cc1ccc(C#CCNC(=O)C(=O)NCc2ccccc2C(=O)NC2(c3ccc4ccccc4c3)CC2)nc1 [Example 190] | < 100 | < 1000
O=C(NCC#Cc1ncccc1C(F)(F)F)C(=O)NCc1ccccc1C(=O)NC1(c2ccc3ccccc3c2)CC1 [Example 191] | < 100 | < 1000
O=C(NCC#Cc1ccc(F)cn1)C(=O)NCc1ccccc1C(=O)NC1(c2ccc3ccccc3c2)CC1 [Example 192] | < 100 | < 1000
N#Cc1cccc(C#CCNC(=O)C(=O)NCc2ccccc2C(=O)NC2(c3ccc4ccccc4c3)CC2)n1 [Example 193] | < 100 | < 1000
N#Cc1nc(C#CCNC(=O)C(=O)NCc2ccccc2C(=O)NC2(c3ccc4ccccc4c3)CC2)ccc1Cl [Example 194] | < 100 | < 1000
COc1nccnc1C#CCNC(=O)C(=O)NCc1ccccc1C(=O)NC1(c2ccc3ccccc3c2)CC1 [Example 195] | < 100 | < 1000
O=C(NCC#Cc1cccc(F)n1)C(=O)NCc1ccccc1C(=O)NC1(c2ccc3ccccc3c2)CC1 [Example 196] | < 100 | < 1000
Cn1ccnc1C#CCNC(=O)C(=O)NCc1ccccc1C(=O)NC1(c2ccc3ccccc3c2)CC1 [Example 197] | < 100 | < 1000
COc1cnc(C#CCNC(=O)C(=O)NCc2ccccc2C(=O)NC2(c3ccc4ccccc4c3)CC2)cn1 [Example 198] | < 100 | < 1000
O=C(NCC#Cc1ccc(Cl)nn1)C(=O)NCc1ccccc1C(=O)NC1(c2ccc3ccccc3c2)CC1 [Example 199] | < 100 | < 1000

Structure (SMILES) | IC50 [1] [nM] | EC50 [2] [nM]
CCOc1cccnc1C#CCNC(=O)C(=O)NCc1ccccc1C(=O)NC1(c2ccc3ccccc3c2)CC1 [Example 200] | < 100 | < 1000
O=C(NCC#Cc1ncccc1OC(F)(F)F)C(=O)NCc1ccccc1C(=O)NC1(c2ccc3ccccc3c2)CC1 [Example 201] | < 100 | < 1000
C[C@@H](C#Cc1ccc(C#N)cc1OC(F)(F)F)NC(=O)C(=O)NCc1ccccc1C(=O)NC1(c2ccc3nn(C)cc3c2)CC1 [Example 206] | < 100 | < 1000
C[C@@H](C#Cc1ncccc1CC#N)NC(=O)C(=O)NCc1ccccc1C(=O)NC1(c2ccc3nn(C)cc3c2)CC1 [Example 209] | < 100 | < 1000
Cn1cc2cc(C3(NC(=O)c4ccccc4CNC(=O)C(=O)NCC#Cc4ncccc4OCC(F)F)CC3)ccc2n1 [Example 211] | < 100 | < 1000
C[C@@H](C#Cc1ncccc1OCC(F)F)NC(=O)C(=O)NCc1ccccc1C(=O)NC1(c2ccc3nn(C)cc3c2)CC1 [Example 212] | 100 to 1000 | 1000 to 10000
CC[C@@H](C#Cc1ncc(F)cn1)NC(=O)C(=O)NCc1ccccc1C(=O)NC1(c2ccc3nn(C)cc3c2)CC1 [Example 213] | < 100 | < 1000
Cn1cc2cc(C3(NC(=O)c4ccccc4CNC(=O)C(=O)NCC#Cc4ccc(C#N)cc4OC(F)(F)F)CC3)ccc2n1 [Example 214] | < 100 | < 1000
COc1cc(C2(NC(=O)c3ccccc3CNC(=O)C(=O)NCC#Cc3ccc(C#N)cc3OC(F)(F)F)CC2)cc2cn(C3CC3)nc12 [Example 215] | < 100 | < 1000
COc1cc(C2(NC(=O)c3ccccc3CNC(=O)C(=O)N[C@@H](C)C#Cc3ccc(C#N)cc3OC(F)(F)F)CC2)cc2cn(C3CC3)nc12 [Example 216] | < 100 | < 1000
N#CCNC(=O)C(=O)NCc1ccccc1C(=O)NC1(c2ccc(F)c(Br)c2)CC1 [Example 217] | 100 to 1000 | > 10000
N#CCNC(=O)C(=O)NCc1ccccc1C(=O)NC1(c2cc(F)cc(Br)c2)CC1 [Example 218] | 100 to 1000 | > 10000
N#CCNC(=O)C(=O)NCc1ccccc1C(=O)NC1(c2ccc(F)c(-c3cccs3)c2)CC1 [Example 219] | < 100 | 1000 to 10000
N#CCNC(=O)C(=O)NCc1ccccc1C(=O)NC1(c2cc(F)cc(-c3cccs3)c2)CC1 [Example 220] | < 100 | 1000 to 10000
N#CCNC(=O)C(=O)NCc1ccccc1C(=O)NC1(c2ccc(F)c(-c3cnn(C4CC4)c3)c2)CC1 [Example 221] | < 100 | 1000 to 10000
N#CCNC(=O)C(=O)NCc1ccccc1C(=O)NC1(c2cc(F)cc(-c3cnn(C4CC4)c3)c2)CC1 [Example 222] | < 100 | > 10000
C#CCNC(=O)C(=O)NCc1ccccc1C(=O)NC1(c2ccc(F)c(-c3cccs3)c2)CC1 [Example 223] | < 100 | < 1000
C#CCNC(=O)C(=O)NCc1ccccc1C(=O)NC1(c2cc(F)cc(-c3cccs3)c2)CC1 [Example 224] | < 100 | < 1000
C#CCNC(=O)C(=O)NCc1ccccc1C(=O)NC1(c2ccc(F)c(-c3cnn(C4CC4)c3)c2)CC1 [Example 225] | < 100 | < 1000
C#CCNC(=O)C(=O)NCc1ccccc1C(=O)NC1(c2cc(F)cc(-c3cnn(C4CC4)c3)c2)CC1 [Example 226] | < 100 | < 1000
C#CCNC(=O)C(=O)NCc1ccccc1C(=O)NC1(c2ccc(F)c(Br)c2)CC1 [Example 227] | < 100 | < 1000
C#CCNC(=O)C(=O)NCc1ccccc1C(=O)NC1(c2cc(F)cc(Br)c2)CC1 [Example 228] | < 100 | < 1000
COc1ccc(C2(NC(=O)c3ccccc3CNC(=O)C(=O)NCC#N)CC2)cc1Br [Example 229] | < 100 | 1000 to 10000
C#CCNC(=O)C(=O)NCc1ccccc1C(=O)NC1(c2ccc(OC)c(Br)c2)CC1 [Example 230] | < 100 | < 1000
Cn1cc(-c2cc(C3(NC(=O)c4ccccc4CNC(=O)C(=O)NCC#N)CC3)ccc2F)cn1 [Example 231] | < 100 | > 10000
